# Results reported in paper PMC9980389, “Structural and biochemical insights into PsEst3, a new GHSR-type esterase obtained from Paenibacillus sp. R4” (IUCrJ, 2023).
# How the values were obtained:
# PsEst3 [1] = target: T1, PsEst3 (Paenibacillus sp. R4, UniProt Z9AKP1HDK8); experiment: inhibition of pNP-C2 hydrolysis, absorbance […] nm; assay type: biochemical; conditions: substrate pNP-C2
# T1 construct: pET-22b in E. coli BL21(DE3)/pPsyGroELS, 6xHis tag kept (Ni-NTA, SEC); residues 4-258 built, including part of the His tag
# T1 sequence (Z9AKP1HDK8 1-257): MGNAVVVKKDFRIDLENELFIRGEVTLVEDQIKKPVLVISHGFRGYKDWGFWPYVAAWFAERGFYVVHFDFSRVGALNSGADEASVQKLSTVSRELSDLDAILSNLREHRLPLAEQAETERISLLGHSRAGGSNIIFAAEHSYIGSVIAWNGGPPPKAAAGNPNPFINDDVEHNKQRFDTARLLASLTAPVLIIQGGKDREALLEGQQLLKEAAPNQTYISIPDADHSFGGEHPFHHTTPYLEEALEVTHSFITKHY
# PsEst3 [2] = target: T1, PsEst3; experiment: fluorescein diester hydrolysis, fluorescence […] nm; assay type: biochemical; conditions: 20 mM Tris-HCl pH 8.0, 150 mM NaCl, 30 °C, 0.1 µM substrate, 10% 2-ethoxyethanol, 0.005% CHAPS
% decrease in activity at 2.4 mM (PsEst3 [1]),SMILES,"fluorescein diester hydrolysis, fluorescence 492/512 nm (PsEst3 [2])"
~ 40%,O=C(O)/C=C\C(=O)O [maleic acid],
,"CCCC(=O)Oc1ccc2c(c1)Oc1cc(OC(=O)CCC)ccc1C21OC(=O)c2ccccc21 [fluorescein-diC4, fluorescein dibutyrate]","fluorescein diesters (fluorescein-diC4, fluorescein-diC8 and fluorescein-diC12) were measured"
